Experiments:
[1] = target: T1, IDO (SKOV-3 cells) (Homo sapiens, UniProt P14902); assay: IDO cell-based assay (SKOV-3, IFNγ-induced), kynurenine production; settings: SKOV-3 ovary adenocarcinoma cells, IFNγ 500 ng/ml, 500 μM L-Trp, 48 h, kynurenine by absorbance at 490 nm
T1 construct: This assay utilised cancer cells which expressed either TDO or IDO; host or cells: SKOV-3 ovary adenocarcinoma cells, IFNγ-induced
Source text: (§1) Two different types of assay were employed: 1. A TDO and IDO biochemical coupled assay which utilised recombinantly produced and purified TDO and IDO enzymes in combination with the enzyme formamidase. This coupled enzyme system allowed conversion of N-formylkynurenine produced by TDO or IDO activity to kynurenine which was then quantified by fluorescence following addition of Erhlich's Reagent. 2. A cell-based assay for detecting the effect of test compounds on kynurenine production in two different cancer cell types. This assay utilised cancer cells which expressed either TDO or IDO and as such was used as a means of testing compound activity at these two enzymes in a cell-based context. The protocols for these are set out below.
(§2) A172 human glioblastoma (ATCC) were grown in DMEM+2 mM L-glutamine medium supplemented with 10% foetal bovine serum and SKOV-3 ovary adenocarcinoma (ATCC) cells were grown in McCoys 5A+L-glutamax medium supplemented with 15% foetal bovine serum. On the day of assay, cells were detached using trypsin-EDTA (0.25% v/v), re-suspended in assay media (RPMI 1640 phenol red free+L-glutamine supplemented with 10% dialysed foetal bovine serum). A172 cells were seeded at 30K cells per well and SKOV-3 cells at 40K cells per well into 96-well plates containing test samples/vehicle control together with 500 μM L-Trp. Cells were then incubated for 48 h at 37° C., 5% CO2. In SK-OV-3 cells, IFNγ was also added at 500 ng/ml for the 48 h incubation in order to induce expression of IDO. Plates were centrifuged and the supernatant was removed and incubated for 5 min in the presence of 1% Erhlich's reagent. Kynurenine levels were then quantified by measuring absorbance at 490 nm.

[2] = target: T2, TDO (A172 cells) (Homo sapiens, UniProt P48775); assay: TDO cell-based assay (A172), kynurenine production; settings: A172 human glioblastoma cells, 500 μM L-Trp, 48 h, kynurenine by absorbance at 490 nm
T2 construct: This assay utilised cancer cells which expressed either TDO or IDO; host or cells: A172 human glioblastoma cells
T2 sequence (P48775 whole entry): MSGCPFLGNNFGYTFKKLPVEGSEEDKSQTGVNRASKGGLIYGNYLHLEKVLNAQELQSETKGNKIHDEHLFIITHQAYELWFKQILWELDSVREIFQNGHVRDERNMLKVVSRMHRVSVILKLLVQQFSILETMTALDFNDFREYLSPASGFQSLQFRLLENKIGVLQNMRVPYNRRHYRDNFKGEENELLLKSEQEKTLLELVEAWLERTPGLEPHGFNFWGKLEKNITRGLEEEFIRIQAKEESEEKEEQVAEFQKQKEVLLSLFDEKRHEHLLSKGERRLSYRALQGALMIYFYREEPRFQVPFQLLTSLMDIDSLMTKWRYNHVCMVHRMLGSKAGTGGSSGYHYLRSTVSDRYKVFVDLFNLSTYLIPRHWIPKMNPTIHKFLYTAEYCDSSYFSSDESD
Source text: as §1, §2

T1 sequence (P14902 whole entry): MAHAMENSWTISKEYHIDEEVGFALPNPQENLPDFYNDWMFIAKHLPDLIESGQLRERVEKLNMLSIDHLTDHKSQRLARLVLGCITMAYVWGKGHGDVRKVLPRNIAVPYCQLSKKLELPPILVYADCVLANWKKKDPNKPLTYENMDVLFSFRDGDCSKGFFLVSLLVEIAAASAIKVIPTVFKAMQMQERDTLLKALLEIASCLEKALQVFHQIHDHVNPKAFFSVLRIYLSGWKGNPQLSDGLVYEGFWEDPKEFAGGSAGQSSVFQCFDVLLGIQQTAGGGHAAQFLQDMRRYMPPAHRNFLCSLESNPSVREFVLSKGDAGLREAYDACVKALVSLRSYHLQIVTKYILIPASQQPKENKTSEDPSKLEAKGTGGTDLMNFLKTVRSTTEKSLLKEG

Row | Compound | IDO cellular assay (SKOV3) pIC50 [1] | TDO cellular assay (A172) pIC50 [2]
1 | Cc1cc(C2(NC(=O)c3cc4cc(Cl)ccc4[nH]3)CC2)no1 [Compound 217] | +++ (+++ = pIC50 ≥5.50) | − (− = pIC50 <4.50)
2 | CC(C)c1noc(C(C)NC(=O)c2cc3cc(Cl)ccc3[nH]2)n1 (centres unmarked) [Compound 126] | +++ (+++ = pIC50 ≥5.50) | − (− = pIC50 <4.50)
3 | O=C(NC1(c2ccccc2)CC1)C1Cc2cc(Cl)ccc2N1 (centres unmarked) [Compound 246] | +++ (+++ = pIC50 ≥5.50) | + (+ = pIC50 4.50-<5.00)
4 | COc1ccc2cc(C(=O)Nc3cccc4ccccc34)[nH]c2c1 [Compound 3] | +++ (+++ = pIC50 ≥5.50) | − (− = pIC50 <4.50)
5 | O=C(NCc1cccc(Cl)c1)c1cc2cc(Cl)ccc2[nH]1 [Compound 33] | ++ (++ = pIC50 5.00-<5.50) | − (− = pIC50 <4.50)
6 | CC1(NC(=O)c2cc3cc(Cl)ccc3[nH]2)CC1 [Compound 139] | + (+ = pIC50 4.50-<5.00) | − (− = pIC50 <4.50)
7 | COc1ccc(C(C)NC(=O)c2cc3cc(Cl)ccc3[nH]2)cc1 (centres unmarked) [Compound 70] | +++ (+++ = pIC50 ≥5.50) | ++ (++ = pIC50 5.00-<5.50)
8 | O=C(NC1(c2ccccc2)CCCCC1)c1cc2cc(Cl)ccc2[nH]1 [Compound 240] | +++ (+++ = pIC50 ≥5.50) | − (− = pIC50 <4.50)
9 | CC(NC(=O)c1cc2cc(Cl)ccc2[nH]1)c1ccccc1 (centres unmarked) [Compound 25] | +++ (+++ = pIC50 ≥5.50) | +++ (+++ = pIC50 ≥5.50)
10 | CC(NC(=O)c1cc2cc(Cl)ccc2[nH]1)c1ccn(C)n1 (centres unmarked) [Compound 201] | + (+ = pIC50 4.50-<5.00) | − (− = pIC50 <4.50)
11 | CC(NC(=O)c1cc2cc(Cl)ccc2[nH]1)C1CCCCC1 (centres unmarked) [Compound 69] | +++ (+++ = pIC50 ≥5.50) | ++ (++ = pIC50 5.00-<5.50)
12 | CC(NC(=O)c1cc2cc(Cl)ccc2[nH]1)c1noc(-c2ccccc2)n1 (centres unmarked) [Compound 134] | +++ (+++ = pIC50 ≥5.50) | − (− = pIC50 <4.50)
13 | COCCOc1ccc(C(C)NC(=O)c2cc3cc(Cl)ccc3[nH]2)cc1 (centres unmarked) [Compound 100] | +++ (+++ = pIC50 ≥5.50) | ++ (++ = pIC50 5.00-<5.50)
14 | O=C(NCC1CCCN(C(=O)C2CC2)C1)c1cc2cc(Cl)ccc2[nH]1 (centres unmarked) [Compound 108] | ++ (++ = pIC50 5.00-<5.50) | − (− = pIC50 <4.50)
15 | CC(NC(=O)c1cc2cc(OC(F)(F)F)ccc2[nH]1)c1cnn(C)c1 (centres unmarked) [Compound 249] | +++ (+++ = pIC50 ≥5.50) | + (+ = pIC50 4.50-<5.00)
16 | COc1ccc2cc(C(=O)Nc3cccc4ncccc34)[nH]c2c1 [Compound 7] | +++ (+++ = pIC50 ≥5.50) | − (− = pIC50 <4.50)
17 | CCc1ccc2[nH]c(C(=O)NC3(c4ccccc4)CC3)cc2c1 [Compound 242] | +++ (+++ = pIC50 ≥5.50) | − (− = pIC50 <4.50)
18 | Cc1nnc(C(C)NC(=O)c2cc3cc(Cl)ccc3[nH]2)o1 (centres unmarked) [Compound 184] | ++ (++ = pIC50 5.00-<5.50) | − (− = pIC50 <4.50)
19 | CS(=O)(=O)N1CCC(C2(NC(=O)c3cc4cc(Cl)ccc4[nH]3)CC2)CC1 [Compound 161] | +++ (+++ = pIC50 ≥5.50) | − (− = pIC50 <4.50)
20 | O=C(NC(CO)c1ccccc1)c1cc2cc(Cl)ccc2[nH]1 (centres unmarked) [Compound 92] | +++ (+++ = pIC50 ≥5.50) | + (+ = pIC50 4.50-<5.00)

Row | Compound | IDO cellular assay (SKOV3) pIC50 [1] | TDO cellular assay (A172) pIC50 [2]
21 | Cn1cc(C2(NC(=O)c3cc4cc(C#N)ccc4[nH]3)COC2)cn1 [Compound 236] | +++ (+++ = pIC50 ≥5.50) | − (− = pIC50 <4.50)
22 | CC(NC(=O)c1cc2cc(Cl)ccc2[nH]1)c1cnn(C)c1 (centres unmarked) [Compound 133] | +++ (+++ = pIC50 ≥5.50) | − (− = pIC50 <4.50)
23 | N#Cc1ccc2[nH]c(C(=O)NC3(c4ccccc4)CCCC3)cc2c1 [Compound 231] | +++ (+++ = pIC50 ≥5.50) | − (− = pIC50 <4.50)
24 | O=C(NC1(c2ccccc2)COC1)c1cc2c(F)c(Cl)ccc2[nH]1 [Compound 220] | +++ (+++ = pIC50 ≥5.50) | − (− = pIC50 <4.50)
25 | Cn1cc(C2(NC(=O)c3cc4ccc(O)cc4[nH]3)CC2)cn1 [Compound 196] | + (+ = pIC50 4.50-<5.00) | − (− = pIC50 <4.50)
26 | CC(C)Oc1ccc2[nH]c(C(=O)NC(C)c3cnn(C)c3)cc2c1 (centres unmarked) [Compound 262] | + (+ = pIC50 4.50-<5.00) | − (− = pIC50 <4.50)
27 | Cc1nc(C(C)NC(=O)c2cc3cc(C#N)ccc3[nH]2)no1 (centres unmarked) [Compound 216] | + (+ = pIC50 4.50-<5.00) | − (− = pIC50 <4.50)
28 | CCC(NC(=O)c1cc2cc(Cl)ccc2[nH]1)c1cnn(C)c1 (centres unmarked) [Compound 258] | +++ (+++ = pIC50 ≥5.50) | − (− = pIC50 <4.50)
29 | CCc1ccc2[nH]c(C(=O)N[C@H](C)c3ccccc3)cc2c1 [Compound 241] | +++ (+++ = pIC50 ≥5.50) | − (− = pIC50 <4.50)
30 | O=C(NCc1ccc(Cl)cc1)c1cc2ccccc2[nH]1 [Compound 9] | +++ (+++ = pIC50 ≥5.50) | − (− = pIC50 <4.50)
31 | O=C(NC1(c2ccc(Cl)cc2)CC1)c1cc2cc(Cl)ccc2[nH]1 [Compound 148] | +++ (+++ = pIC50 ≥5.50) | + (+ = pIC50 4.50-<5.00)
32 | Cn1cc(C2(NC(=O)c3cc4cc(C#N)ccc4[nH]3)CC2)cn1 [Compound 145] | +++ (+++ = pIC50 ≥5.50) | − (− = pIC50 <4.50)
33 | O=C(NC1CCCc2ccccc21)c1cc2ccccc2[nH]1 (centres unmarked) [Compound 66] | ++ (++ = pIC50 5.00-<5.50) | − (− = pIC50 <4.50)
34 | CN1CCC(C(NC(=O)c2cc3cc(Cl)ccc3[nH]2)c2ccccc2)CC1 (centres unmarked) [Compound 256] | + (+ = pIC50 4.50-<5.00) | + (+ = pIC50 4.50-<5.00)
35 | CC(NC(=O)c1cc2cc(Cl)ccc2[nH]1)C1CCCC1 (centres unmarked) [Compound 98] | +++ (+++ = pIC50 ≥5.50) | − (− = pIC50 <4.50)
36 | O=C(Nc1cccc2ncccc12)c1cc2ccc(F)cc2[nH]1 [Compound 64] | ++ (++ = pIC50 5.00-<5.50) | ++ (++ = pIC50 5.00-<5.50)
37 | C[C@H](NC(=O)c1cc2cc(F)ccc2[nH]1)c1ccccc1 [Compound 40] | + (+ = pIC50 4.50-<5.00) | ++ (++ = pIC50 5.00-<5.50)
38 | O=C(NC1CCc2ccccc21)c1cc2ccccc2[nH]1 (centres unmarked) [Compound 6] | + (+ = pIC50 4.50-<5.00) | + (+ = pIC50 4.50-<5.00)
39 | CS(=O)(=O)Nc1ccc2cc(C(=O)NC3(c4ccccc4)CC3)[nH]c2c1 [Compound 190] | + (+ = pIC50 4.50-<5.00) | − (− = pIC50 <4.50)
40 | CCOc1ccc2[nH]c(C(=O)NC3(c4ccccc4)CC3)cc2c1 [Compound 271] | +++ (+++ = pIC50 ≥5.50) | ++ (++ = pIC50 5.00-<5.50)

— patent US10167257B2, “Indole derivatives for use in medicine” (IOmet Pharma Ltd., priority 2014, dated 2019)
